Measured values from patent publication US20130156753A1 (UNIVERSITY OF ROCHESTER, priority 2010, published 2013).
No end group written: not given here.

What was measured:
[1] = system: T1, GST-HDAC5-WT (273-286)
T1 sequence: KVAERRSSPLLRRK

[2] = system: Myc-HDAC5 AA 1-360
[3] = system: HDAC5 nuclear export; assay: PE-induced HDAC5 nuclear export in neonatal rat ventricular cardiomyocytes (NRVMs); format: cell-based
Protocol: (§1) A, B, Cos7 cells were co-transfected with expression vectors encoding GFP-tagged HDAC5 (GFP-HDAC5) and constitutively active protein kinases as indicated, and then exposed to phorbol-12-myristate-13-acetate (PMA, […]) for 3 hours. […] A-F, The cells were fixed and the subcellular localization of GFP-HDAC5 was visualized by fluorescence microscopy.
(§2) The cells were fixed and GFP-HDAC5 localization was analyzed by fluorescence microscopy. α-actinin was detected by immunofluorescence using an antibody against α-actinin and a fluorescein-conjugated secondary antibody. The nuclei were stained with DAPI.
as §2, with “DAPI. B, PKA expression in cell lysates were determined by Western blot using PKA antibody.” for “DAPI.”
The cells were fixed and endogenous HDAC5 localization was analyzed by fluorescence microscopy. HDAC5 and α-actinin was detected by immunocytochemistry with antibody against HDAC5 and α-actinin.
The cells were fixed and GFP-HDAC5 subcellular localization was analyzed by fluorescence microscopy and stained with an α-actinin antibody and DAPI.
Cos7 cells were grown in Dulbecco's Modified Eagle's Medium (DMEM) supplemented with fetal bovine serum (10%), 1-glutamine and penicillin/streptomycin. Primary cultures of neonatal rat cardiac ventricular myocytes (NRVMs) from 1- to 2-day-old Sprague-Dawley rats (Charles River Laboratories) were prepared. In brief, NRVMs were dispersed from the ventricles by digestion with collagenase type II (Worthington). Cells were cultured in Dulbecco's modified Eagle's medium (DMEM) supplemented with 1,000 mg/L D-glucose, L-glutamine, and 110 mg/L sodium pyruvate (GIBCO), fetal bovine serum (10%), and penicillin/streptomycin at 37° C. in a 5% CO2 humidified atmosphere for 2-3 days. For inducer or inhibitor studies, cells were pretreated with various inducers or inhibitors for 30 min in serum-free medium. Primary cultures of adult rat cardiomyocytes were prepared from 200-250g male Sprague-Dawley rats. Briefly, rats were anesthetized, hearts excised and placed in Krebs buffer and perfused and digested with endotoxin-free collagenase II (Worthington). This protocol typically yielded approximately 4×10^6 cells per heart, with ˜85% surviving, rod-shaped Ca2+-tolerant cells. Myocytes were allowed to attach to 20 μg/ml laminin coated plates in Modified Eagle Medium (MEM) containing 2.5% FBS, 25 mmol/L HEPES, 5 mmol/L taurine, 2 mmol/L carnitine, 2 mmol/L creatinine, 100 IU/ml penicillin, and 100 μg/ml streptomycin for 2 hrs before replacing with serum-free MEM containing 25 mmol/L HEPES, 5 mmol/L taurine, 2 mmol/L carnitine, 2 mmol/L creatinine, 100 IU/ml penicillin, and 100 μg/ml streptomycin.
Adenoviruses encoding Flag-tagged HDAC5 wild-type (WT), GFP-tagged HDAC5-WT, and YFP-tagged HDAC7-WT were generated as described previously (Ha C H, et al. (2008) Protein Kinase D-dependent Phosphorylation and Nuclear Export of Histone Deacetylase 5 Mediates Vascular Endothelial Growth Factor-induced Gene Expression and Angiogenesis. J Biol Chem 283(21):14590-14599; Ha C H et al. (2008) VEGF stimulates HDAC7 phosphorylation and cytoplasmic accumulation modulating matrix metalloproteinase expression and angiogenesis. Arterioscler Thromb Vasc Biol 28(10):1782-1788). Adenovirus expressing GFP-tagged HDAC5-S280A mutant, GFP-tagged HDAC5-S280D mutant and Flag-tagged HDAC5-S280A mutant were generated by using ViraPower Adenoviral Expression System (Invitrogen) according to the manufacturer's protocol. Adenovirus containing β-galactosidase (LacZ) or GFP was used as a control. […]

[4] = system: HDAC5 nuclear export; assay: PMA-induced GFP-HDAC5 nuclear export in Cos7 cells (fluorescence microscopy); format: cell-based; conditions: for PMA-induced HDAC5 nuclear export: GFP-HDAC5-WT, pretreatment, then PMA for 3 hours
Protocol: as §1
C, D, Cos7 cells were transfected with GFP-HDAC5-WT or GFP-HDAC5-S280D and then exposed to PMA for 3 hours. GFP-HDAC5-S280D but not GFP-HDAC5-WT was resistant to PMA-induced nuclear export. *, p<0.05 versus without PMA, n=4. E, F, Cos7 cells were transfected with Flag-HDAC5-WT or Flag-HDAC5-S280A mutant, and then pretreated with forskolin followed with the exposure to PMA. Phosphorylation of HDAC5 in cell lysates was analyzed by immunoblotting with phospho-specific HDAC5 antibodies that recognize the HDAC5 phosphorylated at Ser259 (E) and Ser498 (F). G, H, Cos7 cells were transfected with Flag-HDAC5-WT, Flag-HDAC5-S280A or Flag-HDAC5-S280D, and then pretreated with forskolin, followed with the exposure to PMA. Coimmunoprecipitation of Flag-HDAC5 in cell lysates and then immunoblotting with anti-14-3-3 beta and anti-Flag antibodies in immunoprecipitates were performed. 14-3-3 in total cell lysates (5% of the input) was determined by immunoblotting with anti-14-3-3 antibodies. Representative blots are shown, n=3.
The cells were fixed and GFP-HDAC5 localization was analyzed by fluorescence microscopy.
For analysis of GFP-HDAC5 subcellular localization in NRVMs and Cos7 cells, cells were plated in the presence of adenovirus (multiplicity of infection, 50 to 100) on 35 mm dishes containing DMEM plus 10% FBS as previously described (Vega R B, et al. (2004) Protein kinases C and D mediate agonist-dependent cardiac hypertrophy through nuclear export of histone deacetylase 5. Mol Cell Biol 24(19):8374-8385).
(§3) After 24 hour culture, cells were maintained in serum-free DMEM medium for additional 24 hours, and then exposed to various inducers or inhibitors (for 30 minutes) prior to PE or PMA stimulation for indicated times. The cells were washed with PBS and fixed with 3.7% formaldehyde in PBS. Images were captured at a magnification of ×60, using a fluorescence microscope (Olympus BX51) equipped with a digital camera and Spot software system (RT Color Diagnostic Instruments). For analysis of the myocyte marker, sarcomeric α-actinin antibody and DAPI in neonatal cardiomyocyte, immunocytochemistry were performed according to a standard protocol. For subcellular localization of endogenous HDAC5 in cardiomyocyes, we fixed cells and used the detergent Saponin (Sigma, 84510) to make cells permeable, and then performed immunocytochemistry with anti-HDAC5 antibody (Santa Cruz, sc-11419). For subcellular localization of HDAC5, total around 200 cells were counted in each condition. For cardiomyocyte size, total myocyte surface areas were calculated using NIH Image J software, and expressed as the average of 100 randomly selected cells per condition.

[5] = system: HDAC7 nuclear export; assay: PMA-induced YFP-HDAC7 nuclear export in Cos7 cells; format: cell-based
Protocol: Transient transfection of plasmid DNA was performed using lipofectamine 2000 (Invitrogene, Carlsbad, Calif.) and 0.5 μg of the indicated plasmids.

[6] = system: NRVMs; assay: Cardiomyocyte hypertrophy (cell size, α-actinin immunostaining) in NRVMs; format: cell-based, rat
Excerpt: A-H, Cardiomyocyte size was detected by immunostaining with anti-α-actinin antibody. […] The cells were fixed and analyzed for GFP-HDAC5 localization, α-actinin staining and nuclear DAPI staining *, p<0.05 versus without PE; #, p<0.05 versus with PE alone. I, Schematic model for PKA-dependent regulation of HDAC5 subcellular localization and gene transcription.
Cardiomyocyte protein marker α-actinin was detected by immunofluorescence using antibody against α-actinin and fluorescein-conjugated secondary antibody.
as §3

[7] = system: ANF, β-MHC, α-SMA expression; assay: RT-PCR of cardiac fetal gene expression in NRVMs; format: cell-based, rat; conditions: NRVMs with GFP-HDAC5-WT; PE 24 hours
Protocol: The mRNA was extracted from the cell lysates and then RT-PCR with the primers for ANF, β-MHC, α-SMA, and GADPH (internal control) was performed. *, p<0.05 versus PE+Ad-GFP; #, p<0.05 versus PE+GFP-HDAC5-WT, n=4.
The mRNA was extracted from the cell lysates, and quantitative RT-PCR with the primers for ANF and GADPH (internal control) were performed as described in the Examples. Quantitative data are shown (n=4).
Total RNA was isolated from NRVM using TRIzol (Invitrogen Corp.). Firststrand cDNA was synthesized with the SuperScript Preamplification System (Gibco-BRL). cDNA was amplified by PCR for 30 cycle (Applied Biosystem) as described previously (4, 5). Rat GAPDH served as an internal control. The following oligonucleotide primers were used in this study: rat ANF, sense 5′-[…]-3′ (SEQ ID NO:11) and antisense 5′-[…]-3′(SEQ ID NO:12) rat α-SMA, sense 5′-[…]-3′ (SEQ ID NO:13) and antisense 5′-[…]-3′ (SEQ ID NO:14); rat β-MHC (myosin heavy chain), sense 5′-[…]-3′ (SEQ ID NO:15) and antisense 5′-[…]-3′ (SEQ ID NO:16); rat GAPDH, sense 5′-[…]-3′ (SEQ ID NO:17) and antisense 5′-[…]-3′ (SEQ ID NO:18). Experiments were repeated three times.

[8] = NRVMs with GFP-HDAC5-WT, PE 24 hours

Chain of Myc-HDAC5 AA 1-360 (chain, as listed by the source): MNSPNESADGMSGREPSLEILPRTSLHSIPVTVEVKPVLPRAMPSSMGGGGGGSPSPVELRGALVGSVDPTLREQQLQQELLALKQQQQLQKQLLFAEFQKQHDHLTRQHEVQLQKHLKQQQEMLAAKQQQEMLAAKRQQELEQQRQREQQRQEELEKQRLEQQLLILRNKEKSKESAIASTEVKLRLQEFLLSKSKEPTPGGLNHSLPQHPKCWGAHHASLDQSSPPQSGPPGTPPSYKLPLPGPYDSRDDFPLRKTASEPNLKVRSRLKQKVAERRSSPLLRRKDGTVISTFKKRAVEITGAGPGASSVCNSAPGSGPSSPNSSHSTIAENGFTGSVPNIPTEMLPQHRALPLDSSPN

“purified catalytic subunit of protein kinase A (PKA-CA, Calbiochem)” was tested, and the “in vitro kinase assay, 32P autoradiography” value [1] was “recombinant PKA-CA phosphorylated the GST-tagged peptide of HDAC5-WT” and the “in vitro kinase assay, 32P autoradiography” value [2] was “the similar phosphorylation by PKA-CA in an in vitro kinase assay (FIG. 14) was also detected”.

For `CC(C)NCC(O)c1ccc(O)c(O)c1` (stereo not shown) [isoproterenol], the “PE-stimulated HDAC5 nuclear export” value ([3]; NRVMs, adenoviral GFP-HDAC5, 30 min pretreatment, PE 10 μM 3 hours) was “markedly inhibited PE-stimulated HDAC5 nuclear export” and the “PMA-induced HDAC5 nuclear export” value [4] was “inhibited HDAC5 nuclear export”.

With `C=C[C@@]1(C)CC(=O)[C@]2(O)[C@@]3(C)[C@@H](O)CCC(C)(C)[C@@H]3[C@H](O)[C@H](OC(C)=O)[C@@]2(C)O1` [forskolin] the “PMA-induced nuclear export of YFP-HDAC7 (WT)” value [5] was “no inhibitory effect”.

In the case of `CC(C)Cn1c(=O)n(C)c(=O)c2[nH]cnc21` [IBMX, 3-isobutyl-1-methylxanthine], the “PMA-induced HDAC5 nuclear export” value [4] is reported as “inhibited HDAC5 nuclear export”.

With `COc1ccc(C2CNC(=O)C2)cc1OC1CCCC1` (stereo not shown) [rolipram] the “PE/Angiotensin II-induced cardiomyocyte hypertrophy” value ([6]; NRVMs, forskolin 10 μM, cAMP 500 μM, Rolipram 10 μM 30 min, PE or Angiotensin II 24 hours) was “inhibit PE/Angiotensin II-induced cardiomyocyte hypertrophy” and the “PMA-induced HDAC5 nuclear export” value [4] was “inhibited HDAC5 nuclear export”.

In the case of `CCCC(=O)Nc1nc2c(ncn2[C@@H]2O[C@@H]3COP(=O)(O)O[C@H]3[C@H]2OC(=O)CCC)c(=O)[nH]1` [cGMP, DibutyrylcGMP], the “PMA-induced HDAC5 nuclear export” value [4] is reported as “did not block HDAC5 nuclear export”.

For `CNC[C@H](O)c1cccc(O)c1` [PE, R-(−)-Phenylephrine], the “HDAC5 localization (stimulus alone)” value [3, 8] was “HDAC5 nuclear export”, the “cell size (stimulus alone)” value [6, 8] was “increased cell size” and the “expression of ANF, β-MHC and α-SMA (stimulus alone)” value [7] was “significantly increased expression of ANF, β-MHC and α-SMA”.

With `CCCCCC[C@@H]([C@@H](C)O)n1cnc2c(N)ncnc21` (racemic) [EHNA, erythro-9-(2-hydroxy-3-nonyl)adenine] the “PMA-induced HDAC5 nuclear export” value [4] was “inhibited HDAC5 nuclear export”.

With `CN(C(=O)CCCOc1ccc2[nH]c(=O)ccc2c1)C1CCCCC1` [cilostamide] the “PMA-induced HDAC5 nuclear export” value [4] was “did not block HDAC5 nuclear export”.

“PKA Inhibitor 14-22 Amide (SGRTGRRNA-NH2; UniProt P61925 14-22, looked up, fragment) [PKI]” was tested, and the “effect on the inhibitory effects of cAMP on PE-induced HDAC5 nuclear export” value ([3]; NRVMs, GFP-HDAC5, PKA inhibition, then cAMP, PE 3 hours) was “abolished the inhibitory effects of cAMP on PE-induced HDAC5 nuclear export” and the “effect on the inhibition of HDAC5 nuclear export by forskolin and cAMP” value ([4]; GFP-HDAC5, PKI pretreatment, then forskolin or cAMP, then PMA 3 hours) was “abolished the inhibition of forskolin and cAMP on HDAC5 nuclear export”.
